The values that follow come from patent US20250127813A1, “COMBINATION DRUG” (OTSUKA PHARMACEUTICAL CO., LTD., priority 2021, published 2025).

One assay has as its system MDA-MB-231. As to conditions: 16 mg/kg, daily oral administration; References 1 and 2; cited from earlier work.
Another assay relates to CD19-negative NALM6. Briefly: Cell death induction by tolinapant in presence of cytokine produced from CAR-T. As to conditions: cytokine produced from CAR-T present with tolinapant; antigen-negative as well as antigen-expressing tumor cells. It is filed as cell-based. The text has this:
It has also been confirmed that when CAR-T used in this Example was reacted with a target CAR antigen-expressing tumor cell (e.g., CD19-positive NALM6) in vitro, cytokine (e.g., TNF-α) was produced. […] This non-contact apoptosis induction to tumor cells is expected to exert an antitumor effect on tumor cells in which antigen escape has occurred or tumor cells metastasized to a site to which modified immune cells cannot make access.

Another assay deals with MM.1S-luc2. Briefly: Combination of tolinapant and activated integrin β7 CAR-T in MM.1S-luc2 tumor-bearing NOG mice. Format: in vivo, mouse. As for the experimental part: Each mouse was identified with a number attached to the tail of the mouse. During the breeding period, the mice were housed in groups of 5 mice each and bred in a breeding room at a temperature of 24° C.
The evaluation period was set to up to day 14 or day 21. Grouping and pharmacological evaluation were performed using tumor luminescence values as determined by IVIS as an indicator. The luminescence value as determined by IVIS and body weight were measured twice a week.
After grouping, the individuals were identified by marking on the tail of each mouse.
For the measurement, IVIS (trademark) Lumina X5 was used.

The next assay relates to NALM6-luc2. The protocol:
6-week-old NOG mice produced by In-Vivo Science Co., Ltd., were obtained, and tumor cells were intravenously transplanted into the mice at 7 weeks of age to prepare tumor-bearing mice. The day before the transplantation, busulfex (BSF) was intraperitoneally administered at 20 mg/kg. During the breeding period, the mice were housed with 5 mice per group and bred in a P2A breeding room set to a temperature of 24° C. (actual measurement: 19.7 to 25.0° C.), humidity of 50% (actual measurement: 38.6 to 58.5%), and illumination of 12 hours/day (8:00 a.m. to 8:00 p.m.). During the breeding period, the mice were allowed free access to radiation-sterilized solid feed for mice (CL-2, produced by Clea Japan, Inc.) and autoclave-sterilized tap water placed in a water bottle.
CD19 CAR-T cells were intravenously administered once according to the group constitution on the same day as grouping. The IAP antagonist also started to be administered on the same day as grouping and was orally or intravenously administered according to the group constitution table.
The evaluation period was set to 3 to 4 weeks. Grouping and pharmacological evaluation were performed based on tumor luminescence values as determined by IVIS (trademark). Luminescence value measurement by IVIS (trademark) and body weight measurement were performed twice a week.
For NALM6-luc2, after resuspension, a portion of the cell suspension was taken, dead cells were stained with AOPI Staining Solution, and the number of viable cells was counted with a blood cell measuring device. A cell suspension was prepared by diluting the cells with RPMI 1640 to 1×10^7 cells/mL, based on the measurement results of viable cell count of the cells. Similarly, in a low tumor volume system, a cell suspension was prepared by diluting the cells with serum-free RPMI 1640 to achieve a concentration of 1×10^6 cells/mL.
After the mice were retained using a retainer, a cell suspension was transplanted at 1×10^6 cells/0.1 mL/body using a 27G Myjector (1 mL, produced by Terumo Corporation) to the tail vein of each mouse with no anesthesia. In the low tumor volume system, a cell suspension at 1×10^5 cells/0.1 mL/body was transplanted.
In accordance with the dosing regimen shown in FIG. 6, NALM6-luc2 was transplanted the day after treating the […] with busulfex. On the third day after the transplantation, luminescence values were measured using the IVIS (trademark) Lumina X5 In-Vivo imaging system (produced by PerkinElmer, Co., Ltd.). Using the luminous values as an indicator and using SAS software R9.4 (produced by SAS Institute Japan), the mice were divided into groups of 5 mice each by the stratified random sampling method.
1) A suspension of CD19 CAR-T cells was administered to the tail vein at the time of grouping. For the dosage, the number of viable CD19 CAR-T cells was counted and a cell suspension prepared according to the group constitution table was administered once at 0.1 mL/body. For the administration, a Myjector syringe with a 27G needle was used.
5) Birinapant was intraperitoneally administered at a dose of 10 mL/kg according to the group composition table. Tolinapant, LCL161, and AT406 were orally administered at a dose of 10 mL/kg according to the group composition table using a sonde in the same manner. For intraperitoneal administration, an insulin syringe with a 26G needle was used in place of the sonde. For oral administration, a needle was used in place of the sonde to administer each drug.
VivoGlo™-luciferin (produced by Promega) was dissolved in D-PBS(−) to achieve a concentration of 30 mg/mL and then cryopreserved at −20° C. under light-shielded conditions. On the day of measurement, dissolved VivoGlo™-luciferin was diluted with an equivalent amount of D-PBS(−) and stored at room temperature under light-shielded conditions until use for testing. Based on the body weight measured in advance, VivoGlo™-luciferin was intraperitoneally administered in a volume of 10 mL/kg.

Where [1] appears, read: combined use with CD19 CAR-T, AUC up to day 14.
The mark [2] stands for this setting: combined use with CD19 CAR-T, AUC up to day 17.
[3] abbreviates: combined use with CD19 CAR-T, maximum tumor volume (luminescence value).

Molecules are shown by their SMILES. Entries after “also recorded” stand apart in the source; their conditions may differ. Read-outs that look alike come from different tables or passages of the source.

On to `C[C@@H]1CN(CC(=O)N2CC(C)(C)c3nc(CO)c(Cc4ccc(F)cc4)cc32)[C@@H](CN2CCOC[C@H]2C)CN1` [Tolinapant, 1-[6-[(4-fluorophenyl)methyl]-5-(hydroxymethyl)-3,3-dimethyl-2H-pyrrolo[3,2-b]pyridin-1-yl]-2-[(2R,5R)-5-methyl-2-[[(3R)-3-methylmorpholin-4-yl]methyl]piperazin-1-yl]ethanone], for which, in the assay on MDA-MB-231, the “efficacy of tolinapant in MDA-MB-231 xenograft mice” value was “exhibited efficacy”. Besides, the “induction of cell death (e.g., apoptosis)” value in the assay on CD19-negative NALM6 is recorded as “cell death (e.g., apoptosis) is induced to antigen-negative tumor cells (e.g., CD19-negative NALM6) as well as antigen-expressing cells”. Further, the “combination effect of tolinapant and aITGB7 CAR-T (tumor luminescence value)” value in the assay on MM.1S-luc2 (tolinapant 16 mg/kg po every day + aITGB7 CAR-T 3×10^4 cells/body iv, evaluated for 21 days) was “A significant combination effect was observed; also recorded: tumor regression was clearly observed on day 11 and thereafter; also recorded: a significant synergistic effect was observed; also recorded: significant, highly reproducible results”. Further, the “effect of tolinapant administered alone on MM.1S (MM)” value with MM.1S-luc2 (tolinapant alone) was “no effect”. Also, in the assay on NALM6-luc2 (combination with CD19 CAR-T, versus AT406, LCL161, birinapant), the “maximum effect / drug efficacy-enhancement effect of combination with tolinapant compared with other IAP antagonists” value was “the combination with tolinapant was superior; also recorded: a higher drug efficacy-enhancement effect than combinations with any other IAP antagonist”. Moreover, in the assay on NALM6-luc2 (setting [1]), the “t-Test using AUC as an indicator (day 14), Tolinapant versus AT406” value was less than 0.05; the “t-Test using AUC as an indicator (day 14), Tolinapant versus Birinapant” value is less than 0.05; the “t-Test using AUC as an indicator (day 14), Tolinapant versus LCL161” value is on record as less than 0.05. Also, in the assay on NALM6-luc2 (setting [2]), the “t-Test using AUC as an indicator (day 17), Tolinapant versus AT406” value was less than 0.05; the “t-Test using AUC as an indicator (day 17), Tolinapant versus Birinapant” value was less than 0.05; the “t-Test using AUC as an indicator (day 17), Tolinapant versus LCL161” value is given as less than 0.05. Moreover, in the assay on NALM6-luc2 (combined use with CD19 CAR-T, AUC up to day 17, listed as tolinapant), the “t-Test using AUC as an indicator (day 17), Tolinapant versus AT406” value is on record as “a significance due to combined use of tolinapant could be observed”. Also, in the assay on NALM6-luc2 (setting [3]), the “t-Test using the maximum tumor volume as an indicator, Tolinapant versus AT406” value is listed as less than 0.05; the “t-Test using the maximum tumor volume as an indicator, Tolinapant versus Birinapant” value is listed as less than 0.05; the “t-Test using the maximum tumor volume as an indicator, Tolinapant versus LCL161” value is on record as less than 0.05. In the assay on NALM6-luc2 (combined use with CD19 CAR-T, maximum tumor volume (luminescence value), listed as tolinapant), the “t-Test using the maximum tumor volume as an indicator, Tolinapant versus AT406” value is on record as “a significant difference”. The “effect of tolinapant + 1×10^5 cells CD19 CAR-T compared with 1×10^6 cells CD19 CAR-T alone” value with NALM6-luc2 (tolinapant 16 mg/kg qd po + CD19 CAR-T 1×10^5 cells/body iv) is “an effect equivalent to the effect achieved by using 1×10^6 cells of CD19 CAR-T alone was observed on day 14; also recorded: better tumor regression was observed on day 14 and thereafter”. Also, the “combination effect of tolinapant and CD19 CAR-T (tumor luminescence value)” value in the assay on NALM6-luc2 (tolinapant 16 mg/kg qd po + CD19 CAR-T 1×10^5 cells/body iv, versus tolinapant only or CD19 CAR-T only) is “significantly improved effect (p<0.05); also recorded: a significant combination effect was observed on day 7 and thereafter; also recorded: significant, highly reproducible results”. Besides, the “efficacy of tolinapant administered alone” value with NALM6-luc2 (tolinapant alone, 16 mg/kg, daily oral administration) is recorded as “showed no efficacy; also recorded: no effect”.
